Experiments:
[1] = In vitro transdermal flux of cannabinoids from monolithic patches, Franz Diffusion Cell method; assay type: in vitro ADME, human; details: for stimulation of cumulative CBD flux versus no dihydromyricetin: 15% CBD patch
Description: Transdermal flux of cannabinoids can be measured In Vitro through human cadaver epidermis using Franz Diffusion Cell Method. Samples of 300 microliters can be taken of the receiving solution and analyzed by HPLC for amount ofcannabinoid substance that passed through the epidermis.
Flux is preferably measured using human cadaver skin with a Franz Diffusion Cell (see, Kristof (2017) Feasibility of transdermal delivery of Cyclosporine A using plasma discharges. Biointerphases. 12:02B402). Flux can be measured where the temperature of the Franz Diffusion Cell (and solutions inside the Franz Diffusion Cell) are held constant at about 17 degrees C., about 20 degrees C., about 23 degrees C. (“room temperature”), about 26 degrees C., about 30 degrees C., about 33 degrees C., about 37 degrees C. (mammalian body temperature), about 40 degrees C., and so on.
For each figure, the number of hours that flux was allowed to occur was twentyfour hours (24 hours). The data for each figure used a monolithic patch. Composition of the patch: PIB adhesive with 15% of CBD or 8% THC. Patch construction was adhesive layer attached to a backing polyethylene foam film. No additional overlays were used. Experiments were done using Franz Diffusion Cells using human cadaver skin.

[2] = patch measuring 20 cm^2, PIB adhesive and 10% CBD; cited from earlier work

O=C1c2c(O)cc(O)cc2O[C@H](c2cc(O)c(O)c(O)c2)[C@H]1O [dihydromyricetin]
stimulation of cumulative THC flux versus no dihydromyricetin ([1]; 8% THC patch, 5% dihydromyricetin (third histogram bar), 24 hours): about 61%
stimulation of cumulative CBD flux versus no dihydromyricetin ([1]; 3% dihydromyricetin, 24 hours): about 25%
stimulation of cumulative CBD flux versus no dihydromyricetin ([1]; 5% dihydromyricetin, 24 hours): about 48%
increase of CBD flux through skin (factor) ([1]; dermal patch formulation that includes CBD, human cadaver skin): three-fold

CCCCCc1cc(O)c2c(c1)OC(C)(C)[C@@H]1CCC(C)=C[C@@H]21 [THC, tetrahydrocannabinol]
control net flux of THC ([1]; control monolithic patch without any dihydromyricetin, 8% THC, over a period of 24 hours): about 90 micrograms THC per square centimeter of skin
cumulative transdermal flux of THC ([1]; monolithic PIB patch, 8% THC, 0.5% dihydromyricetin, 24 hours, FIG. 1 third bar): about 145 micrograms/cm^2
cumulative transdermal flux of THC ([1]; monolithic PIB patch, 8% THC, 3% oleic acid, 24 hours, FIG. 1 second bar): about 110 micrograms/cm^2
cumulative transdermal flux of THC ([1]; monolithic PIB patch, 8% THC, no enhancer, 24 hours, FIG. 1 first bar): about 90 micrograms/cm^2
net flux of THC ([1]; monolithic PIB patch, 8% THC, with dihydromyricetin, over a period of 24 hours): at least 145 micrograms THC per square centimeter of skin

C=C(C)[C@@H]1CCC(C)=C[C@H]1c1c(O)cc(CCCCC)cc1O [CBD, cannabidiol]
control net flux of CBD ([1]; control monolithic patch without any dihydromyricetin, 15% CBD, over a period of 24 hours): about 155 micrograms CBD per square centimeter of skin
cumulative transdermal flux of CBD ([1]; monolithic PIB patch, 15% CBD, 0% dihydromyricetin, 24 hours, FIG. 2 first bar): about 155 micrograms/cm^2
cumulative transdermal flux of CBD ([1]; monolithic PIB patch, 15% CBD, 3% dihydromyricetin, 24 hours, FIG. 2 second bar): about 195 micrograms/cm^2
cumulative transdermal flux of CBD ([1]; monolithic PIB patch, 15% CBD, 5% dihydromyricetin, 24 hours, FIG. 2 third bar): about 230 micrograms/cm^2
net flux of CBD ([1]; monolithic PIB patch, 15% CBD, with dihydromyricetin, over a period of 24 hours): at least 195 micrograms CBD per square centimeter of skin
daily systemic dose of CBD deliverable [2]: about 5 mg
